Measurements taken from patent publication US7741323B2, “Indene derivatives and process for the preparation thereof” (Korea Research Institute of Chemical Technology, priority 2004, dated 2010).

Experiments:
[1] = Adverse side effects check (weight, heart weight, liver weight, GPT/GOT) in high fat diet C57/BL6J mice; format: in vivo; conditions: for GOT / GPT / Heart Weight / Liver Weight / Weight: high fat diet C57/BL6J mice, oral administration for 14 days
Description: To check possible adverse side effects caused by the administration of the compound, the weight, heart weight and liver weight of each mouse were measured. GPT and GOT values were also calculated by employing a kit available in the market.

human PPARγ = biological target: T1, human PPARγ (Homo sapiens, UniProt P37231); assay: PPARγ activation test (GAL-4/luciferase reporter in NIH/3T3 cell); format: cell-based; conditions: GAL-4/human PPARγ LBD luciferase reporter, 24 hrs incubation
T1 construct: expressed in transfected cells; host or cells: NIH/3T3 cells (mouse fibroblasts)
T1 sequence (P37231 238-503 limits assumed): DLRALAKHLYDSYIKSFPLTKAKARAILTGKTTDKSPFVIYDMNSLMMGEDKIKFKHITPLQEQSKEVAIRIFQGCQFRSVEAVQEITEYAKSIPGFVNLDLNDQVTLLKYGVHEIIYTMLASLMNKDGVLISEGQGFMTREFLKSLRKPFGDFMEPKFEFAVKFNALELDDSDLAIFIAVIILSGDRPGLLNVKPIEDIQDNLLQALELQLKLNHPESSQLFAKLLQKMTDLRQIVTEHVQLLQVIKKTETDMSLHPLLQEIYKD
Description: The activity for PPARγ activation was examined as follows.
The vector fused with the ligand binding domain of a human PPARγ gene and the DNA binding site of a yeast GAL-4 gene, and luciferase reporter vector were simultaneously transfected in NIH/3T3 cell. The cells were cultured for 24 hrs. The solution containing the cells at a concentration of 2×10^4 cells/well was placed on a 96-well plate. Then, each of the test compounds of the present invention or the control group without test compounds was added thereto. After incubating for 24 hrs, the cells were subjected to lysis.

ob/ob mice = assay: Effectiveness in lowering blood glucose level in ob/ob mice; format: in vivo
Description: The resulting solution was intraperitoneally administered to the mice at a dose of 50 mg/kg, once a day for 5 days, or orally administered to the mice, at a dose of 100 mg/kg, twice a day for 14 days. Days 1, 3 and 5 were selected for intraperitoneal administration, and days 5, 10 and 14, for oral administration, to collect blood samples for measuring the blood glucose levels. […] Upon the completion of the oral administration for 14 days, the mice were fasted for 16 hrs to perform OGTT (Oral Glucose Tolerance Test) to determine the changes in insulin sensitivity induced by the oral administration. After administrating glucose to the mice at a dose of 2 g/kg orally, blood samples were collected at 0, 15, 30 60 and 120 minutes to measure blood glucose levels.

C57/BL6J mice = assay: Suppression of blood glucose and insulin levels in high fat diet C57/BL6J mice; format: in vivo
Description: Days 1, 3 and 5 were selected for intraperitoneal administration, and days 5, 10 and 14, for oral administration, to collect blood samples for measuring the blood glucose levels. […] Upon the completion of the oral administration for 14 days, the mice were fasted for 16 hrs to perform OGTT (Oral Glucose Tolerance Test) to determine the changes in insulin sensitivity induced by the oral administration. After administrating glucose to the mice at a dose of 2 g/kg orally, blood samples were collected at 0, 15, 30 60 and 120 minutes to measure blood glucose levels.
The extents of suppression of blood glucose and insulin levels were measured as mentioned above. To check possible adverse side effects caused by the administration of the compound, the weight, heart weight and liver weight of each mouse were measured. GPT and GOT values were also calculated by employing a kit available in the market.

[2] = high fat diet C57/BL6J mice, after 14 days oral administration
[3] = high fat diet C57/BL6J mice, oral administration once a day for 14 days

Compound | melting point [°C] | EC50 (human PPARγ) [nM] | further results
CN(CCOc1ccc(CC2SC(=O)NC2=O)cc1)c1ccccn1 (stereo not shown) [Rosiglitazone, reference compound] |  |  | GOT [1]: 70 ± 8.2 karmen; GPT [1]: 85 ± 12/ karmen; Heart Weight [1]: 0.140 ± 0.009 g; Liver Weight [1]: 1.56 ± 0.18 g; Weight [1]: 39 ± 1.6 g
C/[N+]([O-])=C1\C(C(N)=O)=C(c2ccccc2)c2ccc(OCCCc3ccccc3)cc21 [Compound 73, 1-(trans-methylimino-N-oxy)-3-phenyl-6-(3-phenylpropoxy)-1H-indene-2-carboxylate amide] |  | 110 | 
C/[N+]([O-])=C1\C(C#N)=C(c2ccccc2)c2ccc(OCCCc3ccccc3)cc21 [Compound 75, 1-(trans-methylimino-N-oxy)-3-phenyl-6-(3-phenylpropoxy)-1H-indene-2-carbonitrile] | 126 to 128 | 95 | 
CC(C)NC(=O)C1=C(c2ccccc2)c2cc(OCCc3ccccn3)ccc2/C1=[N+](/C)[O-] [Compound 99, 1-(trans-methylimino-N-oxy)-3-phenyl-5-(2-pyridine-2-ylethoxy)-1H-indene-2-carboxylate isopropyl amide] | 158 to 159 |  | 
C/[N+]([O-])=C1\C(C(=O)NC2CCCCC2)=C(c2ccccc2)c2ccc(OCCCc3ccccc3)cc21 [Compound 39, 1-(trans-methylimino-N-oxy)-3-phenyl-6-(3-phenylpropoxy)-1H-indene-2-carboxylate cyclohexyl amide] |  | 45 | 
CC(C)NC(=O)C1=C(c2ccccc2)c2ccc(OCCCc3ccccc3)cc2/C1=[N+](/C)[O-] [Compound 38, 1-(trans-methylimino-N-oxy)-3-phenyl-6-(3-phenylpropoxy)-1H-indene-2-carboxylate isopropyl amide] |  | 170 | 
CC(C)NC(=O)C1=C(c2ccccc2)c2ccc(OCCc3ccccn3)cc2/C1=[N+](/C)[O-] [Compound 80, 1-(trans-methylimino-N-oxy)-3-phenyl-6-(2-pyridine-2-ylethoxy)-1H-indene-2-carboxylate isopropyl amide] | 124 to 126 | 100 | 
CCOC(=O)C1=C(c2ccccc2)c2cc(OCCCc3ccccc3)ccc2/C1=[N+](/C)[O-] [Compound 42, 1-(trans-methylimino-N-oxy)-3-phenyl-5-(3-phenylpropoxy)-1H-indene-2-carboxylate ethyl ester] |  | 80 | 
CCOC(=O)C1=C(c2ccccc2)c2ccc(COCCc3ccccc3)cc2/C1=[N+](/C)[O-] [Compound 43, 1-(trans-methylimino-N-oxy)-6-phenethyloxymethyl-3-phenyl-1H-indene-2-carboxylate ethyl ester] |  | 80 | 
CCOC(=O)C1=C(c2ccccc2)c2ccc(OCCc3ccc(CC)cn3)cc2/C1=[N+](/C)[O-] [Compound 79, 6-[2-(5-ethylpyridine-2-yl)ethoxy]-1-(trans-methylimino-N-oxy)-3-phenyl-1H-indene-2-carboxylate ethyl ester] |  | 20 | 
CCOC(=O)C1=C(c2ccccc2)c2ccc(CN3CCOCC3)cc2/C1=[N+](/C)[O-] [Compound 77, 1-(trans-methylimino-N-oxy)-6-morpholine-4-ylmethyl-3-phenyl-1H-indene-2-carboxylate ethyl ester] |  | 170 | 
CCOC(=O)C1=C(c2ccccc2)c2cc3c(cc2/C1=[N+](/C)[O-])OCO3 [Compound 48, 1-(trans-methylimino-N-oxy)-5,6-methylenedioxy-1-oxo-3-phenyl-1H-indene-2-carboxylate ethyl ester] | 119 to 121 | 10 | 
CCOC(=O)C1=C(C2CC2)c2ccc(OCCCc3ccccc3)cc2/C1=[N+](/C)[O-] [Compound 68, 3-cyclopropyl-1-(trans-methylimino-N-oxy)-6-(3-phenylpropoxy)-1H-indene-2-carboxylate ethyl ester] |  | 10 | 
CCc1ccc(CCOc2ccc3c(c2)/C(=[N+](/C)[O-])C(C(=O)NC(C)C)=C3c2ccccc2)nc1 [Compound 81, 6-[2-(5-ethylpyridine-2-yl)ethoxy]-1-(trans-methylimino-N-oxy)-3-phenyl-1H-indene-2-carboxylate isopropyl amide] |  | 45 | 
CCOC(=O)C1=C(c2ccccc2)c2ccc(OCCCCCc3ccccc3)cc2/C1=[N+](/C)[O-] [Compound 15, 1-(trans-methylimino-N-oxy)-3-phenyl-6-(5-phenylpentyloxy)-1H-indene-2-carboxylate ethyl ester] |  | 150 | 
CCOC(=O)C1=C(c2ccccc2)c2ccc(OCCC3CCCCC3)cc2/C1=[N+](/C)[O-] [Compound 25, 6-(2-cyclohexylethoxy)-1-(trans-methylimino-N-oxy)-3-phenyl-1H-indene-2-carboxylate ethyl ester] |  | 50 | 
1-hydroxy-6-(2-morpholine-4-yl-ethoxy)-1,3-diphenyl-1H-indene-2-carboxylic acid ethyl ester [Example 8] |  |  | % Inhibition, Oral Glucose Tolerance Test (Blood Glucose) (ob/ob mice; ob/ob mice after 14 days oral administration, fasted 16 hrs, glucose 2 g/kg orally, total blood glucose over 120 minutes): 10.2%; % Inhibition, blood glucose, Intraperitoneal Administration (50 mg/kg/day) (ob/ob mice; ob/ob mice, i.p. 50 mg/kg once a day for 5 days, relative to control): 32.0%; % Inhibition, blood glucose, Oral Administration (100 mg/kg/day) (ob/ob mice; ob/ob mice, oral 100 mg/kg twice a day for 14 days, relative to control): 23.7%; effect in lowering blood glucose and insulin levels (C57/BL6J mice; administered orally or intraperitoneally, summary of Tables 6, 7 and 8): excellent effect in lowering both blood glucose and insulin levels; % Inhibition, Oral Glucose Tolerance Test (Glucose) (C57/BL6J mice; [2]): 23.8%; % Inhibition, Oral Glucose Tolerance Test (Insulin) (C57/BL6J mice; [2]): 56.2%; % Inhibition, Blood glucose concentration (C57/BL6J mice; [3]): 30.0%; % Inhibition, Blood insulin concentration (C57/BL6J mice; [3]): 44.6%; GOT [1]: 39 ± 7.8 karmen; GPT [1]: 29 ± 3.2/ karmen; Heart Weight [1]: 0.123 ± 0.007 g; Liver Weight [1]: 1.06 ± 0.17 g; Weight [1]: 35 ± 1.1 g; side effects (weight gain, hepatotoxicity, cardiotoxicity) ([1]; summary of Tables 6, 7 and 8): no side effects such as weight gain, hepatotoxicity or cardiotoxicity

Continued, in another order:

melting point [°C] | EC50 (human PPARγ) [nM] | Compound | further results
102 to 104 |  | CCOC(=O)C1=C(c2ccccc2)c2ccc(OCCN3CCOCC3)cc2/C1=[N+](/C)[O-] [Compound 33, 1-(trans-methylimino-N-oxy)-6-(2-morpholine-4-ylethoxy)-3-phenyl-1H-indene-2-carboxylate ethyl ester] | 
134 to 137 |  | CC(C)NC(=O)C1=C(c2ccccc2)c2cc(OCCN3CCOCC3)ccc2/C1=[N+](/C)[O-] [Compound 100, 1-(trans-methylimino-N-oxy)-5-(2-morpholine-4-ylethoxy)-3-phenyl-1H-indene-2-carboxylate isopropyl amide] | 
123 to 125 | 200 | CC(C)NC(=O)C1=C(c2ccccc2)c2ccc(OCCN3CCOCC3)cc2/C1=[N+](/C)[O-] [Compound 50, 1-(trans-methylimino-N-oxy)-6-(2-morpholine-4-ylethoxy)-3-phenyl-1H-indene-2-carboxylate isopropyl amide] | 
79 to 81 | 25 | CC(C)OC(=O)C1=C(c2ccccc2)c2ccc(OCCN3CCOCC3)cc2/C1=[N+](/C)[O-] [Compound 8] | 
122 to 123 |  | C/[N+]([O-])=C1\C=C(c2ccccc2)c2ccc(OCCN3CCOCC3)cc21 [Compound 82, methyl-[6-(2-morpholine-4-ylethoxy)-3-phenylindene-1-yllidene]amine-N-oxide] | 
 | 12 | C/[N+]([O-])=C1\C(C(=O)NC2CCCCC2)=C(c2ccccc2)c2ccc(OCCN3CCOCC3)cc21 [Compound 41, 1-(trans-methylimino-N-oxy)-6-(2-morpholine-4-yl-ethoxy)-3-phenyl-1H-indene-2-carboxylate cyclohexyl amide] | 
151 to 152 |  | CCOC(=O)C1=C(c2ccccc2)c2ccc(OCCN3CCOCC3)cc2/C1=[N+](\C)[O-] [Compound 45, 1-(cis-methylimino-N-oxy)-6-(2-morpholine-4-ylethoxy)-3-phenyl-1H-indene-2-carboxylate ethyl ester] | 
77 to 79 | 80 | CC(C)NC(=O)C1=C(c2csc3ccccc23)c2ccc(OCCN3CCOCC3)cc2/C1=[N+](/C)[O-] [Compound 94, 3-benzo-[b]-thiophene-3-yl-1-(trans-methylimino-N-oxy)-6-(2-morpholine-4-ylethoxy)-1H-indene-2-carboxylate isopropyl amide] | 
153 to 155 |  | CC(C)OC(=O)C1=C(c2ccccc2)c2ccc(OCCN3CCOCC3)cc2/C1=[N+](\C)[O-] [Compound 101, 1-(cis-methylimino-N-oxy)-6-(2-morpholine-4-ylethoxy)-3-phenyl-1H-indene-2-carboxylate isopropyl ester] | 
